1 compound from PMC12133300, “The C-terminal structure of the N^6-methyladenosine deaminase YerA and its role in deamination” (Biochemical Journal, 2025) can be followed below.

The target in experiment [1] is T1, YerA (Bsu06560) (Bacillus subtilis, UniProt O34909).
T1 construct: full-length (Met1-Arg580), pET-28a(+), E. coli BL21(DE3), N-terminal His-tag cleaved by PreScission protease; monomer; assayed as apo or metal-reconstituted form
The experiment is described as follows: thermal shift assay (SYPRO Orange). The experiment is classed as binding. As to conditions: apo-YerA (without metal reconstitution) 15 uM, 3 mM ligand.

Experiment [2] deals with T1, YerA (Bsu06560). The experiment is described as follows: LC-Q-TOF-MS detection of inosine product. It counts as biochemical. Conditions: metal-reconstituted holoenzyme, 5 h, 37 °C, 5 mM ligand; apo form without reconstitution inactive.

T1 sequence (O34909 whole entry): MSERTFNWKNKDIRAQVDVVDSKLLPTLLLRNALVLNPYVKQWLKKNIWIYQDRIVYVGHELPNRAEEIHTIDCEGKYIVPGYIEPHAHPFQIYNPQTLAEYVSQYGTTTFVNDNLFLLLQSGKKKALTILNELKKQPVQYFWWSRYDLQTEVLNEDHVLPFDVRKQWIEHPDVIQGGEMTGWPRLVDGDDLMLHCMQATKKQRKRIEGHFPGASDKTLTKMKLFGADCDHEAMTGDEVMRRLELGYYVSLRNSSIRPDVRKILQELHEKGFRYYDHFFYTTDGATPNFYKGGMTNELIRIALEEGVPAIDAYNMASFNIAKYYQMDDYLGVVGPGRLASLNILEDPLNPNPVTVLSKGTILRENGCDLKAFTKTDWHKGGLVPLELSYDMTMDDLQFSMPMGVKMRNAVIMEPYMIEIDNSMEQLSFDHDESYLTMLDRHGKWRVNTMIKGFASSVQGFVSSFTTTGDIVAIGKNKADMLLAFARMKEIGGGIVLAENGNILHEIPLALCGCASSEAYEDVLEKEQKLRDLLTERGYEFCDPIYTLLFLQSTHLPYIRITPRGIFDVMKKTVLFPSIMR

As to `CNc1ncnc2c1ncn2[C@@H]1O[C@H](CO)[C@@H](O)[C@H]1O` [N^6-mAdo, N^6-methyladenosine], the Tm shift in experiment [1] was determined as 3 °C. Further, the “LC-Q-TOF-MS detection of inosine product” value in experiment [2] is “YerA deaminated the favored substrate N^6-mAdo to Ino after a 5-h reaction”.
